The values below come from patent US20240285571A1, “METHODS OF TREATING BONE INFECTIONS” (MICROBION CORPORATION, priority 2020, published 2024).

Assay [1] relates to Corynebacterium amycolatum. The experiment in a line: MIC of baseline clinical isolates (Example 8). It is filed as cell-based. As to conditions: Corynebacterium amycolatum baseline isolates (N′ = 1), central laboratory, mITT. In a few lines: (§1)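 MIC values reflect CLSI susceptibility testing of MBN-101 (BisEDT) on baseline clinical isolates. These were recovered at a central lab from bone, tissue, swab and sinus tract samples of the infected index site.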

The subject of another assay is Corynebacterium jeikeium. Briefly: MIC of baseline clinical isolates (Example 8). It is filed as cell-based. As to conditions: Corynebacterium jeikeium baseline isolates (N′ = 2), central laboratory, mITT. In a few lines:
as §1

Another assay has as its system Dermabacter hominis. The experiment in a line: MIC of baseline clinical isolates (Example 8). It is filed as cell-based. Particulars: Dermabacter hominis baseline isolates (N′ = 1), central laboratory, mITT. In a few lines:
as §1

The test system of assay [2] is Corynebacterium resistens. The experiment in a line: MIC of baseline clinical isolates (Example 8). As to conditions: Corynebacterium resistens baseline isolates (N′ = 1), central laboratory, mITT. In kind it is cell-based. Put shortly: as §1
For another assay, the system named is Streptococcus oralis. Briefly: MIC of baseline clinical isolates (Example 8). It is filed as cell-based. As to conditions: Streptococcus oralis baseline isolates (N′ = 1), central laboratory, mITT. In a few lines: as §1
Assay [3] concerns non-speciated Corynebacterium. The experiment in a line: MIC of baseline clinical isolates (Example 8). As to conditions: Corynebacterium non-speciated baseline isolates (N′ = 2), central laboratory, mITT. In kind it is cell-based. In a few lines:
as §1

A further assay concerns E. coli. Particulars: E. coli MMX 102 (ATCC 25922); cited from earlier work.
In another assay the test system is S. pneumoniae. The experiment in a line: Broth microdilution MIC (Example 5). It is filed as cell-based. Particulars: Streptococcus pneumoniae. In a few lines: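 MICs were determined by CLSI broth microdilution with serial two-fold drug dilutions in CLSI-prepared media. Inocula were set to 0.5 McFarland, diluted, and added to the plates. Bacteria were incubated at 35° C. for 16-24 hr, and endpoints were read visually per CLSI criteria.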

In assay [4] the test system is P. aeruginosa and A. baumannii. The experiment in a line: MIC summary, P. aeruginosa and A. baumannii (Example 5). In kind it is cell-based. As to conditions: all evaluated P. aeruginosa and A. baumannii isolates (Table 4); read-out: MIC values across isolates. On the procedure:
Test and Comparator Agents: The test agents were stored at room temperature until assayed. All test agents were suspended and diluted in 100% dimethylsulfoxide (DMSO), and were ultimately tested at a final concentration of 0.06-64 μg/mL. The stock solutions were allowed to stand for at least 1 hr prior to use to auto-sterilize.
TestMedia: Test media were prepared and stored in accordance with guidelines from CLSI (4, 6, 7). […] Neisseria gonorrhoeae were evaluated by agar dilution using agar consisting of GC medium base (BD; Lot No. 4274618) supplemented with 1% IsoVitaleX (BD; Lot No. 5246843).
Broth Microdilution MC Testing (Aerobic Bacteria and Yeast): The broth microdilution assay method employed for the susceptibility testing of aerobic bacteria (excluding N. gonorrhoeae which was evaluated by agar dilution) and yeast essentially followed the procedures described by CLSI (3, 4, 7, 8) and employed automated liquid handlers to conduct serial dilutions and liquid transfers. […]
Plates were stacked 4 high, covered with a lid on the top plate, placed into plastic bags, and incubated at 35° C. for approximately 24-48 hr for all yeast isolates and 16-24 hr for aerobic bacteria. […] MIC endpoints for the test agents and control compounds were read per CLSI criteria (3, 7).

The mark [5] stands for this setting: ATCC49619, S. pneumoniae MMX 6837 (ATCC 49619), QC.
Setting [6] is: S. pneumoniae MMX 880, LevR SXTR CCR EryR PenR.
[7] abbreviates: S. pneumoniae MMX 937, MemR SXTR CCR EryR PenR.
[8] abbreviates: S. pneumoniae MMX 3959, CCR EryR.
Where [9] appears, read: S. pneumoniae MMX 5440, MemR SXTR CCR EryR PenR.
Where [10] appears, read: S. pneumoniae MMX 5445, MemR SXTR CCR EryR PenR.
[11] abbreviates: S. pneumoniae MMX 8133, MemR SXTR CCR EryR PenR.

Structures are written as SMILES. Like-named read-outs stand apart in the source and are kept apart here.

`CCC[C@@H]1C[C@@H](C(=O)N[C@@H]([C@H]2O[C@H](SC)[C@H](O)[C@@H](O)[C@H]2O)[C@H](C)Cl)N(C)C1` [CLI]: the “Mean MIC” value in assay [1] was 2.00 µg/mL; in the assay with Corynebacterium jeikeium, 2.00 µg/mL; with Dermabacter hominis it was 0.50 µg/mL; in [2] it was 0.50 µg/mL; with Streptococcus oralis, 0.03 µg/mL; in assay [3], 1.06 µg/mL. Besides, the “n (% resistant)” value in [1] is reported as 1 (100.0) n (%); in the assay on Corynebacterium jeikeium, 2 (100.0) n (%); in the assay on Dermabacter hominis, 0 (0.0) n (%); in assay [2], 0 (0.0) n (%); in the assay with Streptococcus oralis it was 0 (0.0) n (%); in assay [3] it was 1 (50.0) n (%).
With `CC(C)(O/N=C(\C(=O)N[C@@H]1C(=O)N2C(C(=O)[O-])=C(C[n+]3ccccc3)CS[C@H]12)c1csc(N)n1)C(=O)O` [Ceftazidime], the “CLSI QC range of MIC” value in the assay on E. coli is listed as “(0.06-0.5) μg/mL”.
For `C[C@H]1COc2c(N3CCN(C)CC3)c(F)cc3c(=O)c(C(=O)O)cn1c23` [Levofloxacin], the MIC in [1] came to 8 µg/mL; in the assay on Corynebacterium jeikeium, 0.18 µg/mL; in the assay with Dermabacter hominis, 1 µg/mL; in assay [2] it was 0.12 µg/mL; in the assay with Streptococcus oralis, 2 µg/mL; in assay [3] it was 0.18 µg/mL. Moreover, the “n (% resistant)” value (in assay [1]; with Corynebacterium jeikeium; in the assay with Dermabacter hominis; in [2]; in the assay with Streptococcus oralis; in [3]) was 0 (0.0) n (%) throughout.
In the case of `OCC(S)CS.[Bi]` (stereo not shown) [MB-2B, bismuth-2,3-dimercaptopropanol], the MIC with S. pneumoniae (setting [5]) is 8 µg/mL; against S. pneumoniae (setting [6]), 8 µg/mL; in the assay on S. pneumoniae (setting [7]) it was 1 µg/mL; in the assay with S. pneumoniae (setting [8]), 8 µg/mL; against S. pneumoniae (setting [9]), 8 µg/mL; in the assay with S. pneumoniae (setting [10]), 8 µg/mL. For the same compound, the MIC is 8 µg/mL against S. pneumoniae (setting [11]); 1 to 8 µg/mL in the assay on S. pneumoniae (read-out: MIC values across isolates, pneumococci (Table 6)); 2 to 16 µg/mL in assay [4].
Turning to `CC(S)C(C)S.[Bi]` (stereo not shown) [MB-6, bismuth-2,3-butanedithiol], the MIC amounted to 0.5 µg/mL against S. pneumoniae (setting [5]); 0.5 µg/mL in the assay on S. pneumoniae (setting [6]); 8 µg/mL in the assay with S. pneumoniae (setting [7]); 1 µg/mL against S. pneumoniae (setting [8]); 0.5 µg/mL in the assay on S. pneumoniae (setting [9]); 0.5 µg/mL against S. pneumoniae (setting [10]). For the same compound, the MIC with S. pneumoniae (setting [11]) is 0.5 µg/mL; in [4] it was 0.5 to 2 µg/mL.
For `C[C@@H](O)[C@H]1C(=O)N2C(C(=O)O)=C(S[C@@H]3CN[C@H](C(=O)N(C)C)C3)[C@H](C)[C@H]12` [Meropenem], in the assay with E. coli, the “CLSI QC range of MIC” value is given as “(0.008-0.06) μg/mL”.
